Laboratory results taken from the supplement of paper PMC11061612.

Assays:
Assay in all cases: combination Emax (second highest fraction inhibited in the dose matrix, 72 h); higher = more inhibition; extreme values may be limits of the assay
[1] = system: AMO-1 (Plasma Cell Myeloma)
Summary of the method: (§1)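 Bliss excess equals the observed combination effect minus the expected value EA + EB − EA·EB, where EA and EB are the effects of each agent alone. Combination Emax is the second-highest inhibition within the matrix. Inhibition was scaled from CellTiter-Glo 2.0 luminescence, with 0 set by vehicle wells and 1 by blank wells, after 72 hours of two-drug dosing of cells plated in 1536-well plates.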

[2] = system: BT-549 (Breast Carcinoma)
Summary of the method: as §1

[3] = system: Caov-4 (Ovarian Carcinoma)
Summary of the method: as §1

[4] = system: EoL-1-cell (Acute Myeloid Leukemia)
Summary of the method: as §1

[5] = system: KARPAS-299 (T-Cell Non-Hodgkin's Lymphoma)
Summary of the method: as §1

[6] = system: MIA-PaCa-2 (Pancreatic Carcinoma)
Summary of the method: as §1

[7] = system: MLMA (Other Blood Carcinomas)
Summary of the method: as §1

[8] = system: NB69 (Neuroblastoma)
Summary of the method: as §1

[9] = system: NCI-H727 (Other Solid Carcinomas)
Summary of the method: as §1

[10] = system: PANC-04-03 (Pancreatic Carcinoma)
Summary of the method: as §1

[11] = system: RF-48 (B-Cell Non-Hodgkin's Lymphoma)
Summary of the method: as §1

[12] = system: UACC-62 (Melanoma)
Summary of the method: as §1

[13] = system: YH-13 (Glioblastoma)
Summary of the method: as §1

Row | Structure (SMILES) | combination Emax [1] | combination Emax [2] | combination Emax [3] | combination Emax [4] | combination Emax [5] | combination Emax [6] | combination Emax [7] | combination Emax [8] | combination Emax [9] | combination Emax [10] | combination Emax [11] | combination Emax [12] | combination Emax [13]
1 | O=C(c1cc(Cc2n[nH]c(=O)c3ccccc23)ccc1F)N1CCN(C(=O)C2CC2)CC1 [Olaparib] + COc1nnc2ccc(N3CCC(c4ccc(OCCN5CCN(C)C(=O)[C@H]5C)cc4)CC3)nn12 [AZD5153] (first compound max 10 µM, 7x7, partner max 1 µM) | 0.882 | 0.462 | 0.456 | 0.97 | 0.774 | 0.852 | 0.83 | 0.959 | 0.288 | 0.52 | 0.354 | 0.491 | 0.556
2 | Cc1nc(-c2cn3c(n2)-c2ccc(-c4cnn(C(C)(C)C(N)=O)c4)cc2OCC3)n(C(C)C)n1 [Taselisib] + O=C(Nc1ccc2[nH]nc(-c3ccncc3)c2c1)[C@@H]1CCN(CC(=O)N2CCN(c3ccc(-c4ncccn4)cc3)CC2)C1 [SCH772984] (first compound max 10 µM, 7x7, partner max 5 µM) | 0.761 | 0.501 | 0.763 | 1 | 0.413 | 0.797 | 0.561 | 0.997 | 0.958 | 0.905 | 0.36 | 0.955 | 0.932
3 | CN(CCO)CC[C@H](CSc1ccccc1)Nc1ccc(S(=O)(=O)NC(=O)c2ccc(N3CCC([C@@H](O)c4ccccc4-c4ccc(Cl)cc4)CC3)cc2)cc1S(=O)(=O)C(F)(F)F [AZD4320] + CS(=O)(=O)CCNCc1ccc(-c2ccc3ncnc(Nc4ccc(OCc5cccc(F)c5)c(Cl)c4)c3c2)o1 [Lapatinib] (first compound max 1 µM, 7x7, partner max 10 µM) | 0.926 | 0.633 | 0.955 | 1 | 0.204 | 0.832 | 0.497 | 0.983 | 0.96 | 0.313 | 0.874 | 0.362 | 0.603
4 | C[C@@H]1COCCN1c1cc(C2([S@](C)(=N)=O)CC2)nc(-c2ccnc3[nH]ccc23)n1 [AZD6738] + Nc1ccn([C@@H]2O[C@H](CO)[C@@H](O)C2(F)F)c(=O)n1 [Gemcitabine] (first compound max 10 µM, 7x7, partner max 0.3 µM) | 0.967 | 0.797 | 0.894 | 1 | 0.997 | 0.947 | 0.794 | 1 | 0.526 | 0.627 | 0.77 | 0.757 | 0.865
5 | C[C@@H](Nc1cc(F)cc(F)c1)c1cc(C(=O)N(C)C)cc2c(=O)cc(N3CCOCC3)oc12 [AZD8186] + CC(=O)c1c(C)c2cnc(Nc3ccc(N4CCNCC4)cn3)nc2n(C2CCCC2)c1=O [Palbociclib] (first compound max 10 µM, 7x7, partner max 10 µM) | 0.673 | 0.392 | 0.29 | 0.551 | 0.345 | 0.471 | 0.847 | 0.927 | 0.362 | 0.344 | 0.4 | 0.51 | 0.692
6 | C[C@@H](Oc1cc(-c2cnn(C3CCNCC3)c2)cnc1N)c1c(Cl)ccc(F)c1Cl [Crizotinib] + Cn1cnc2c(F)c(Nc3ccc(Br)cc3Cl)c(C(=O)NOCCO)cc21 [Selumetinib] (first compound max 10 µM, 7x7, partner max 10 µM) | 0.999 | 0.38 | 0.552 | 1 | 0.895 | 0.763 | 0.491 | 1 | 0.958 | 0.631 | 0.306 | 0.782 | 0.446
7 | C[C@@H]1COCCN1c1cc(C2([S@](C)(=N)=O)CC2)nc(-c2ccnc3[nH]ccc23)n1 [AZD6738] + C1CC(C1)(C(=O)[O-])C(=O)[O-].N.N.[Pt+2] [Carboplatin] (first compound max 10 µM, 7x7, partner max 10 µM) | 0.88 | 0.51 | 0.813 | 0.97 | 0.926 | 0.547 | 0.553 | 0.857 | 0.472 | 0.455 | 0.329 | 0.246 | 0.576
8 | O=C(c1cc(Cc2n[nH]c(=O)c3ccccc23)ccc1F)N1CCN(C(=O)C2CC2)CC1 [Olaparib] + Cc1c2c(nn1C)CSCc1cc(n(C)n1)CSc1cc(c3ccccc3c1)OCCCc1c(C(=O)O)n(C)c3c-2c(Cl)ccc13 [AZD5991] (first compound max 10 µM, 7x7, partner max 1 µM) | 1 | 0.217 | 0.482 | 1 | 0.931 | 0.161 | 0.384 | 0.886 | 0.106 | 0.0799 | 0.365 | 0.568 | 0.187
9 | C=CCn1c(=O)c2cnc(Nc3ccc(N4CCN(C)CC4)cc3)nc2n1-c1cccc(C(C)(C)O)n1 [AZD1775] + CCc1c2c(nc3ccc(O)cc13)-c1cc3c(c(=O)n1C2)COC(=O)[C@]3(O)CC [SN-38] (first compound max 1 µM, partner max 0.3 µM) | 0.974 | 0.857 | 0.905 | 1 | 0.971 | 0.969 | 0.786 | 0.997 | 0.514 | 0.617 | 0.783 | 0.745 | 0.741
10 | O=C(c1cc(Cc2n[nH]c(=O)c3ccccc23)ccc1F)N1CCN(C(=O)C2CC2)CC1 [Olaparib] + CC1(C)CCC(CN2CCN(c3ccc(C(=O)NS(=O)(=O)c4ccc(NCC5CCOCC5)c([N+](=O)[O-])c4)c(Oc4cnc5[nH]ccc5c4)c3)CC2)=C(c2ccc(Cl)cc2)C1 [Venetoclax] (first compound max 10 µM, 7x7, partner max 1 µM) | 0.333 | 0.18 | 0.137 | 0.99 | 0.306 | 0.209 | 0.265 | 0.643 | 0.119 | 0.176 | 0.606 | 0.213 | 0.195
11 | CS(=O)(=O)CCNCc1ccc(-c2ccc3ncnc(Nc4ccc(OCc5cccc(F)c5)c(Cl)c4)c3c2)o1 [Lapatinib] + Cn1cnc2c(F)c(Nc3ccc(Br)cc3Cl)c(C(=O)NOCCO)cc21 [Selumetinib] (first compound max 10 µM, 7x7, partner max 10 µM) | 0.894 | 0.32 | 0.694 | 0.832 | 0.446 | 0.57 | 0.316 | 0.916 | 0.631 | 0.77 | 0.275 | 0.831 | 0.209
12 | C[C@@H](Oc1cc(-c2cnn(C3CCNCC3)c2)cnc1N)c1c(Cl)ccc(F)c1Cl [Crizotinib] + CC1=C(C(=CC=C1)Cl)NC(=O)C2=CN=C(S2)NC3=CC(=NC(=N3)C)N4CCN(CC4)CCO [Dasatinib] (first compound max 10 µM, 7x7, partner max 2 µM) | 0.954 | 0.679 | 0.414 | 1 | 0.888 | 0.608 | 0.529 | 0.951 | 0.79 | 0.529 | 0.365 | 0.345 | 0.978
13 | Cc1c2c(nn1C)CSCc1cc(n(C)n1)CSc1cc(c3ccccc3c1)OCCCc1c(C(=O)O)n(C)c3c-2c(Cl)ccc13 [AZD5991] + CS(=O)(=O)CCNCc1ccc(-c2ccc3ncnc(Nc4ccc(OCc5cccc(F)c5)c(Cl)c4)c3c2)o1 [Lapatinib] (first compound max 1 µM, 7x7, partner max 10 µM) | 1 | 0.412 | 0.891 | 1 | 0.952 | 0.496 | 0.232 | 0.902 | 0.299 | 0.343 | 0.244 | 0.576 | 0.186
14 | Cc1c2c(nn1C)CSCc1cc(n(C)n1)CSc1cc(c3ccccc3c1)OCCCc1c(C(=O)O)n(C)c3c-2c(Cl)ccc13 [AZD5991] + Nc1ccn([C@@H]2O[C@H](CO)[C@@H](O)C2(F)F)c(=O)n1 [Gemcitabine] (first compound max 1 µM, 7x7, partner max 0.3 µM) | 1 | 0.395 | 0.83 | 1 | 0.979 | 0.85 | 0.821 | 0.99 | 0.283 | 0.548 | 0.679 | 0.753 | 0.574
15 | O=C(c1cc(Cc2n[nH]c(=O)c3ccccc23)ccc1F)N1CCN(C(=O)C2CC2)CC1 [Olaparib] + CN(CC[C@H](CSC1=CC=CC=C1)NC2=C(C=C(C=C2)S(=O)(=O)NC(=O)C3=CC=C(C=C3)N4CCC(CC4)[C@H](C5=CC=CC=C5C6=CC=C(C=C6)Cl)O)S(=O)(=O)C(F)(F)F)CCO [AZD4320] (first compound max 10 µM, 7x7, partner max 1 µM) | 0.424 | 0.217 | 0.181 | 1 | 0.432 | 0.184 | 0.519 | 0.943 | 0.433 | 0.121 | 0.926 | 0.198 | 0.401
16 | C=CCn1c(=O)c2cnc(Nc3ccc(N4CCN(C)CC4)cc3)nc2n1-c1cccc(C(C)(C)O)n1 [AZD1775] + Nc1ccn([C@@H]2O[C@H](CO)[C@@H](O)C2(F)F)c(=O)n1 [Gemcitabine] (first compound max 1 µM, partner max 0.3 µM) | 0.959 | 0.827 | 0.837 | 1 | 0.976 | 0.947 | 0.815 | 1 | 0.392 | 0.526 | 0.727 | 0.73 | 0.662
